Patent US10266510B2, “Antimicrobial and cytotoxic compounds and methods for treating cancer, a bacterial infection, and/or a fungal infection” (King Abdulaziz University, priority 2017, dated 2019)
In brackets after ≈: the same amount, converted by molar mass.

Experiments:
[1] = test system: Aspergillus flavus ATCC 16883; experiment: MIC by agar well diffusion method; assay type: cell-based; conditions: 25° C., 48 h, dilutions 50 to 500 μg/mL; for MIC: Aspergillus flavus, ATCC16883
Text: (§1) The common pathogenic and food spoilage microorganisms were selected for their relevance in bakery products and other food: the gram-positive bacteria: Bacillus subtilits NRRL-B-4219, Staphylococcus aureus ATCC 6538, Enterococcus faecalis ATCC 19433; the gram negative bacteria: Escherichia coli ATCC 25922, Pseudomonas aeruginosa ATCC 9027, Proteus sp.; yeasts, such as Candida albicans ATCC 10231; and fungi: Aspergillus niger NRRL 2766 (equivalent to ATCC 16888), and Aspergillus flavus ATCC 16883. The bacteria were slanted on nutrient agar (Merck, Darmstadt, Germany), yeast was slanted and mentioned on Sabaroud's agar medium (Lab M., Bury, Lancashire, UK) and the fungi was slanted and mentioned on the potato Dextrose Agar medium (Lab M Limited, Bury, Lancashire, UK). Mueller-Hinton agar (Lab M., Bury, Lancashire, UK) following the manufacturer's instructions was used for the assay. The in vitro minimum inhibitory concentration (MIC) of the synthesized compounds was determined by the agar well diffusion method. DMSO was used to prepare different concentrations ranging from 50 to 500 μg/mL by serial dilutions. The media were inoculated with 100 μL of each of the 10^6 cfu/mL bacterial and fungal strains, and the assay was applied by an agar well diffusion method. Blank DMSO was used as negative control. The plates were incubated aerobically in an incubator at 37° C. for 24 h for bacterial strains and 25° C. for 48 h for fungal strains. The MIC was taken as the lowest concentration in the series dilution that prevented bacterial growth.

[2] = test system: Aspergillus niger NRRL 2766; experiment: MIC by agar well diffusion method; assay type: cell-based; conditions: 25° C., 48 h, dilutions 50 to 500 μg/mL; for MIC: Aspergillus niger, NRRL2766
Text: as §1

[3] = test system: Bacillus subtilits NRRL-B-4219; experiment: MIC by agar well diffusion method; assay type: cell-based; conditions: 37° C., 24 h, dilutions 50 to 500 μg/mL; for MIC: Bacillus, NRRLB4219
Text: as §1

[4] = test system: Candida albicans ATCC 10231; experiment: MIC by agar well diffusion method; assay type: cell-based; conditions: 25° C., 48 h, dilutions 50 to 500 μg/mL; for MIC: Candida albicans, ATCC10231
Text: as §1

[5] = test system: Enterococcus faecalis ATCC 19433; experiment: MIC by agar well diffusion method; assay type: cell-based; conditions: 37° C., 24 h, dilutions 50 to 500 μg/mL; for MIC: Enterococcus faecalis, ATCC19433, read-out: MIC, Ent. faecalis
Text: as §1

[6] = test system: Escherichia coli ATCC 25922; experiment: MIC by agar well diffusion method; assay type: cell-based; conditions: 37° C., 24 h, dilutions 50 to 500 μg/mL; for MIC: Escherichia coli, ATCC25922
Text: as §1

Proteus sp. = experiment: MIC by agar well diffusion method; assay type: cell-based; conditions: 37° C., 24 h; dilutions 50 to 500 μg/mL
Text: as §1

[7] = test system: Pseudomonas aeruginosa ATCC 9027; experiment: MIC by agar well diffusion method; assay type: cell-based; conditions: 37° C., 24 h, dilutions 50 to 500 μg/mL; for MIC: Pseudomonas aeruginosa, ATCC9027, read-out: MIC, P. aeruginosa
Text: as §1

[8] = test system: Staphylococcus aureus ATCC 6538; experiment: MIC by agar well diffusion method; assay type: cell-based; conditions: 37° C., 24 h, dilutions 50 to 500 μg/mL; for MIC: Staphylococcus aureus, ATCC6538, read-out: MIC, S. aureus
Text: as §1

Row | Compound | MIC [1] [µg/mL] | MIC [2] [µg/mL] | MIC [3] [µg/mL] | MIC [4] [µg/mL] | MIC [5] [µg/mL] | MIC [6] [µg/mL] | MIC (Proteus sp.) [µg/mL] | MIC [7] [µg/mL] | MIC [8] [µg/mL] | melting point [°C] | MIC, A. flavus [1] [µg/mL] | MIC, A. niger [2] [µg/mL] | MIC, B. subtilits [3] [µg/mL] | MIC, C. albicans [4] [µg/mL] | MIC, Ent. faecalis [5] [µg/mL] | MIC, E. coli [6] [µg/mL] | MIC, Proteus sp. (Proteus sp.) [µg/mL] | MIC, P. aeruginosa [7] [µg/mL] | MIC, S. aureus [8] [µg/mL]
1 | CCOC1Oc2ccccc2C(=O)C1=NNc1ccccc1OC (stereo not shown) [Compound 6b, 2-ethoxy-3-(2-(2-methoxyphenyl)hydrazono)chroman-4-one] | 350 (≈ 1070 µM) | 300 (≈ 919 µM) | 200 (≈ 613 µM) | 400 (≈ 1230 µM) | 450 (≈ 1380 µM) | 250 (≈ 766 µM) | 350 (≈ 1070 µM) | 400 (≈ 1230 µM) | 300 (≈ 919 µM) | 158 |  |  |  |  |  |  |  |  | 
2 | CCOC1Oc2ccccc2C(=O)C1=NNc1ccc(Cl)cc1 (stereo not shown) [Compound 6c, 3-[(4-Chlorophenyl)hydrazono]-2-ethoxychroman-4-one] | 200 (≈ 605 µM) | 100 (≈ 302 µM) | 75 (≈ 227 µM) | 50 (≈ 151 µM) | 200 (≈ 605 µM) | 50 (≈ 151 µM) | 150 (≈ 453 µM) | 150 (≈ 453 µM) | 150 (≈ 453 µM) |  |  |  |  |  |  |  |  |  | 
3 | Ethoxy-3-[(4-nitro-phenyl)-hydrazono]-chroman-one [Compound 6a] |  |  |  |  |  |  |  |  |  |  | 250 | 200 | 150 | 250 | 250 | 100 | 250 | 300 | 350
